Measurements published in ChEMBL document CHEMBL5370606, “Diterpenoids from Euphorbia fischeriana with Kv1.3 Inhibitory Activity” (J Nat Prod, 2023).

system: HEK293; test: Cytotoxicity against HEK293 cells; type: toxicity, cell-based; details: human

SMILES | Activity
C=C1C[C@@]23CC[C@@H]4C(C)(C)[C@H](O)CC[C@@]4(C)[C@@H]2C[C@@H]1[C@@H](O)C3=O | Non-Toxic
CC1=C2C=C3CC[C@@H]4C(C)(C)C(=O)CC[C@@]4(C)[C@]3(O)C[C@H]2OC1=O | Non-Toxic
CC(=O)O[C@]12C[C@@H](C)[C@H](O)[C@@H]1/C=C(\C)[C@H](O)C[C@@H]1[C@@H](/C=C(\C)C2=O)C1(C)C | Non-Toxic
CC(=O)O[C@H]1[C@@H](C)/C=C/C(C)(C)C(=O)CC(=O)/C(C)=C/[C@H]2[C@@H](OC(=O)c3ccccc3)[C@H](C)C[C@@]21O | Non-Toxic
CC(=O)O[C@]12C[C@@H](C)[C@H](OC(=O)c3ccccc3)[C@@H]1/C=C(\C)[C@H](O)C[C@H]1[C@@H](/C=C(\C)C2=O)C1(C)C | Non-Toxic
CC1=C2C=C3CC[C@@H]4C(C)(C)[C@H](O)CC[C@@]4(C)[C@]3(O)C[C@H]2OC1=O | Non-Toxic
CC(=O)O[C@@H]1[C@@H](C)/C=C/C(C)(C)C(=O)C[C@@H](O)/C(C)=C/[C@H]2[C@@H](OC(=O)c3ccccc3)[C@H](C)C[C@]12O | Non-Toxic
CC1=C2C=C3CC[C@@H]4C(C)(C)C(=O)[C@H](O)[C@@]4(C)[C@@H]3C[C@H]2OC1=O | Non-Toxic
CC(=O)O[C@@H]1[C@@H](C)/C=C/C(C)(C)C(=O)C[C@@H](O)/C(C)=C/[C@H]2[C@@H](OC(=O)c3ccccc3)[C@H](C)C[C@]12OC(C)=O | Non-Toxic
CC1=C2C(=C[C@H]3[C@]4(C)CC[C@@H](O)C(C)(C)[C@H]4CC[C@]34O[C@H]24)OC1=O | Non-Toxic
C=C1C[C@@]23CC[C@@H]4C(C)(C)C(=O)CC[C@@]4(C)[C@@H]2C[C@@H]1[C@@H](O)C3=O | Non-Toxic
CCC/C=C\C=C\C(=O)O[C@@H]1C[C@H]2[C@@H](/C=C(\C)C(=O)[C@@]3(OC(C)=O)C[C@@H](C)[C@H](O)[C@@H]3/C=C/1C)C2(C)C | Non-Toxic

biological target: T1, Potassium voltage-gated channel subfamily A member 3 (Homo sapiens, UniProt P22001); test: Inhibition of Kv1.3 (unknown origin) expressed in HEK293 cells at -90 mV holding potential by automated patch-clamp technique; type: cell-based; details: not given
T1 sequence (P22001 whole entry): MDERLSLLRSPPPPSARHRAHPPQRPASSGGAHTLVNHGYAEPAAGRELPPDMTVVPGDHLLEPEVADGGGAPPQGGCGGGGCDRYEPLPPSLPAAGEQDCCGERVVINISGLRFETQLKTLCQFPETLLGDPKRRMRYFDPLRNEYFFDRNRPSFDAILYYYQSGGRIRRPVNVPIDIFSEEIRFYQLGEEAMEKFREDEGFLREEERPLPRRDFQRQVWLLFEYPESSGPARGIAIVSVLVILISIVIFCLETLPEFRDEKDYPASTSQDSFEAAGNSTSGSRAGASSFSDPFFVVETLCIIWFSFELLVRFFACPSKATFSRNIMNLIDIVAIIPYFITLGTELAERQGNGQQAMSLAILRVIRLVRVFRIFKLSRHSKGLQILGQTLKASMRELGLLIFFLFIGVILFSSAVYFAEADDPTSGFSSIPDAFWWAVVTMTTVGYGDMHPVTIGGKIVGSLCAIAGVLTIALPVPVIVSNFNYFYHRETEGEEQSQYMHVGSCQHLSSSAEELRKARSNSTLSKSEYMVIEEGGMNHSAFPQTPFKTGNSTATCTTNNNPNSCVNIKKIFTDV

IC50 [µM] | SMILES
4.3 | CC(=O)O[C@]12C[C@@H](C)[C@H](OC(=O)c3ccccc3)[C@@H]1/C=C(\C)[C@H](O)C[C@H]1[C@@H](/C=C(\C)C2=O)C1(C)C

biological target: T2, hERG (KCNH2) (Homo sapiens, UniProt Q12809); test: Inhibition of human ERG expressed in HEK293 cells at 10 uM at -80 mV holding potential by whole-cell patch clamp method; type: toxicity, cell-based; details: HEK293 cells that express hERG
T2 sequence (Q12809 whole entry): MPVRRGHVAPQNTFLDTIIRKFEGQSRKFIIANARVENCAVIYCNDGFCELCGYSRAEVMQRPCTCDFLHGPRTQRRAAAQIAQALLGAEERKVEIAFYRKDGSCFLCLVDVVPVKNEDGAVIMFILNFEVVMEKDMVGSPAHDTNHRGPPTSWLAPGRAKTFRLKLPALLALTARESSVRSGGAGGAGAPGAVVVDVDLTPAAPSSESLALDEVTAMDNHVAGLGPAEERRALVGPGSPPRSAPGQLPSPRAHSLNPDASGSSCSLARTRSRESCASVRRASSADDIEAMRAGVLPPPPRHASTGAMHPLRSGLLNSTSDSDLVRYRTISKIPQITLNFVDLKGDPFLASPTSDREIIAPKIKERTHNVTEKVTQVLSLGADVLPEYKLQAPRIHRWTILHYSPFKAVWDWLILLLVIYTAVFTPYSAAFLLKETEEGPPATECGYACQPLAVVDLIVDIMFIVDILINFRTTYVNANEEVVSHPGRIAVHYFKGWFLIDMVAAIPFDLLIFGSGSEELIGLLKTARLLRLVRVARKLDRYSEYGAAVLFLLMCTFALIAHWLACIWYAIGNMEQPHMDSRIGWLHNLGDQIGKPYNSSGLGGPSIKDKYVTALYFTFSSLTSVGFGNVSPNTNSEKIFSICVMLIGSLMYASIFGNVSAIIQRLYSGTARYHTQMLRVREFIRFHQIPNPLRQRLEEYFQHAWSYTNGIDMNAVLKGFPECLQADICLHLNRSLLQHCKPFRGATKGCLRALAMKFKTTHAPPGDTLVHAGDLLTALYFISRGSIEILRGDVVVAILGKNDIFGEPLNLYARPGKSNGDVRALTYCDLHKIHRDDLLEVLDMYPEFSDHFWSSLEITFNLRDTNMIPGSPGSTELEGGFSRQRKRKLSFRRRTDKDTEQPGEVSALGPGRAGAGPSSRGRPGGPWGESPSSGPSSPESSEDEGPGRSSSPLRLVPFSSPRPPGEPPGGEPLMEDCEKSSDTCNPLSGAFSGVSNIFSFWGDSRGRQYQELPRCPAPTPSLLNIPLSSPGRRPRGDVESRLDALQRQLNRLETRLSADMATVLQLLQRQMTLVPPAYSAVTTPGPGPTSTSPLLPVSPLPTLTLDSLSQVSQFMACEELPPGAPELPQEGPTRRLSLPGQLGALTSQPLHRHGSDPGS

SMILES | inhibition at 10 µM [%]
CC(=O)O[C@@H]1[C@@H](C)/C=C/C(C)(C)C(=O)C[C@@H](O)/C(C)=C/[C@H]2[C@@H](OC(=O)c3ccccc3)[C@H](C)C[C@]12OC(C)=O | 44.6

biological target: T1, Potassium voltage-gated channel subfamily A member 3; test: Inhibition of Kv1.3 (unknown origin) expressed in HEK293 cells at 30 uM at -90 mV holding potential by automated patch-clamp technique relative to control; type: cell-based; details: not given

inhibition [%] | SMILES
10.4 | C=C1C[C@@]23CC[C@@H]4C(C)(C)[C@H](O)CC[C@@]4(C)[C@@H]2C[C@@H]1[C@@H](O)C3=O
17.2 | CC1=C2C=C3CC[C@@H]4C(C)(C)C(=O)CC[C@@]4(C)[C@]3(O)C[C@H]2OC1=O
70.6 | CC(=O)O[C@]12C[C@@H](C)[C@H](O)[C@@H]1/C=C(\C)[C@H](O)C[C@@H]1[C@@H](/C=C(\C)C2=O)C1(C)C
77.5 | CC(=O)O[C@H]1[C@@H](C)/C=C/C(C)(C)C(=O)CC(=O)/C(C)=C/[C@H]2[C@@H](OC(=O)c3ccccc3)[C@H](C)C[C@@]21O
81.2 | CC(=O)O[C@]12C[C@@H](C)[C@H](OC(=O)c3ccccc3)[C@@H]1/C=C(\C)[C@H](O)C[C@H]1[C@@H](/C=C(\C)C2=O)C1(C)C
21.2 | CC1=C2C=C3CC[C@@H]4C(C)(C)[C@H](O)CC[C@@]4(C)[C@]3(O)C[C@H]2OC1=O
69.3 | CC(=O)O[C@@H]1[C@@H](C)/C=C/C(C)(C)C(=O)C[C@@H](O)/C(C)=C/[C@H]2[C@@H](OC(=O)c3ccccc3)[C@H](C)C[C@]12O
24.4 | CC1=C2C=C3CC[C@@H]4C(C)(C)C(=O)[C@H](O)[C@@]4(C)[C@@H]3C[C@H]2OC1=O
84.2 | CC(=O)O[C@@H]1[C@@H](C)/C=C/C(C)(C)C(=O)C[C@@H](O)/C(C)=C/[C@H]2[C@@H](OC(=O)c3ccccc3)[C@H](C)C[C@]12OC(C)=O
14.5 | CC1=C2C(=C[C@H]3[C@]4(C)CC[C@@H](O)C(C)(C)[C@H]4CC[C@]34O[C@H]24)OC1=O
32.3 | C=C1C[C@@]23CC[C@@H]4C(C)(C)C(=O)CC[C@@]4(C)[C@@H]2C[C@@H]1[C@@H](O)C3=O

SMILES | inhibition [%]
CCC/C=C\C=C\C(=O)O[C@@H]1C[C@H]2[C@@H](/C=C(\C)C(=O)[C@@]3(OC(C)=O)C[C@@H](C)[C@H](O)[C@@H]3/C=C/1C)C2(C)C | 77.7

biological target: Voltage-gated inwardly rectifying potassium channel KCNH2 (Homo sapiens, UniProt Q12809); test: Inhibition of human ERG expressed in HEK293 cells at -80 mV holding potential by whole-cell patch clamp method; type: toxicity, cell-based; details: not given
Sequence (Q12809 whole entry): as above

SMILES | IC50 [µM]
CC(=O)O[C@]12C[C@@H](C)[C@H](OC(=O)c3ccccc3)[C@@H]1/C=C(\C)[C@H](O)C[C@H]1[C@@H](/C=C(\C)C2=O)C1(C)C | > 30

biological target: T1, Potassium voltage-gated channel subfamily A member 3; test: Inhibition of Kv1.3 (unknown origin) expressed in HEK293 cells at 10 uM at -90 mV holding potential by automated patch-clamp technique relative to control; type: cell-based; details: not given

inhibition [%] | SMILES
33.5 | CC(=O)O[C@]12C[C@@H](C)[C@H](O)[C@@H]1/C=C(\C)[C@H](O)C[C@@H]1[C@@H](/C=C(\C)C2=O)C1(C)C
42.9 | CC(=O)O[C@H]1[C@@H](C)/C=C/C(C)(C)C(=O)CC(=O)/C(C)=C/[C@H]2[C@@H](OC(=O)c3ccccc3)[C@H](C)C[C@@]21O
55.6 | CC(=O)O[C@]12C[C@@H](C)[C@H](OC(=O)c3ccccc3)[C@@H]1/C=C(\C)[C@H](O)C[C@H]1[C@@H](/C=C(\C)C2=O)C1(C)C
28.7 | CC(=O)O[C@@H]1[C@@H](C)/C=C/C(C)(C)C(=O)C[C@@H](O)/C(C)=C/[C@H]2[C@@H](OC(=O)c3ccccc3)[C@H](C)C[C@]12O
59.8 | CC(=O)O[C@@H]1[C@@H](C)/C=C/C(C)(C)C(=O)C[C@@H](O)/C(C)=C/[C@H]2[C@@H](OC(=O)c3ccccc3)[C@H](C)C[C@]12OC(C)=O

SMILES | inhibition [%]
CCC/C=C\C=C\C(=O)O[C@@H]1C[C@H]2[C@@H](/C=C(\C)C(=O)[C@@]3(OC(C)=O)C[C@@H](C)[C@H](O)[C@@H]3/C=C/1C)C2(C)C | 39.8

species on record: Homo sapiens; test: Selectivity index, ratio of IC50 for human ERG expressed in HEK293 cells to IC50 for Kv1.3 (unknown origin) expressed in HEK293 cells; type: cell-based; details: not given

SMILES | Ratio IC50
CC(=O)O[C@]12C[C@@H](C)[C@H](OC(=O)c3ccccc3)[C@@H]1/C=C(\C)[C@H](O)C[C@H]1[C@@H](/C=C(\C)C2=O)C1(C)C | > 7

biological target: T2, hERG (KCNH2); test: Inhibition of human ERG expressed in HEK293 cells at 30 uM at -80 mV holding potential by whole-cell patch clamp method; type: toxicity, cell-based; details: HEK293 cells that express hERG

SMILES | inhibition at 30 µM [%]
CC(=O)O[C@]12C[C@@H](C)[C@H](OC(=O)c3ccccc3)[C@@H]1/C=C(\C)[C@H](O)C[C@H]1[C@@H](/C=C(\C)C2=O)C1(C)C | 40.9
CC1=C2C=C3CC[C@@H]4C(C)(C)C(=O)[C@H](O)[C@@]4(C)[C@@H]3C[C@H]2OC1=O | 19.9
CC(=O)O[C@@H]1[C@@H](C)/C=C/C(C)(C)C(=O)C[C@@H](O)/C(C)=C/[C@H]2[C@@H](OC(=O)c3ccccc3)[C@H](C)C[C@]12OC(C)=O | 75.4
C=C1C[C@@]23CC[C@@H]4C(C)(C)C(=O)CC[C@@]4(C)[C@@H]2C[C@@H]1[C@@H](O)C3=O | 24.5
